Measured values published in ChEMBL document CHEMBL1127183, “Synthesis of 6-amino-5-oxo-7-phenyl-1,4-oxazepines as conformationally constrained gauche () dipeptide mimetics” (Bioorg Med Chem Lett, 1993).

Target: Angiotensin-converting enzyme (Homo sapiens, UniProt P12821)
Assay: Binding affinity against Angiotensin I converting enzyme

Chain of Angiotensin-converting enzyme (P12821 whole entry): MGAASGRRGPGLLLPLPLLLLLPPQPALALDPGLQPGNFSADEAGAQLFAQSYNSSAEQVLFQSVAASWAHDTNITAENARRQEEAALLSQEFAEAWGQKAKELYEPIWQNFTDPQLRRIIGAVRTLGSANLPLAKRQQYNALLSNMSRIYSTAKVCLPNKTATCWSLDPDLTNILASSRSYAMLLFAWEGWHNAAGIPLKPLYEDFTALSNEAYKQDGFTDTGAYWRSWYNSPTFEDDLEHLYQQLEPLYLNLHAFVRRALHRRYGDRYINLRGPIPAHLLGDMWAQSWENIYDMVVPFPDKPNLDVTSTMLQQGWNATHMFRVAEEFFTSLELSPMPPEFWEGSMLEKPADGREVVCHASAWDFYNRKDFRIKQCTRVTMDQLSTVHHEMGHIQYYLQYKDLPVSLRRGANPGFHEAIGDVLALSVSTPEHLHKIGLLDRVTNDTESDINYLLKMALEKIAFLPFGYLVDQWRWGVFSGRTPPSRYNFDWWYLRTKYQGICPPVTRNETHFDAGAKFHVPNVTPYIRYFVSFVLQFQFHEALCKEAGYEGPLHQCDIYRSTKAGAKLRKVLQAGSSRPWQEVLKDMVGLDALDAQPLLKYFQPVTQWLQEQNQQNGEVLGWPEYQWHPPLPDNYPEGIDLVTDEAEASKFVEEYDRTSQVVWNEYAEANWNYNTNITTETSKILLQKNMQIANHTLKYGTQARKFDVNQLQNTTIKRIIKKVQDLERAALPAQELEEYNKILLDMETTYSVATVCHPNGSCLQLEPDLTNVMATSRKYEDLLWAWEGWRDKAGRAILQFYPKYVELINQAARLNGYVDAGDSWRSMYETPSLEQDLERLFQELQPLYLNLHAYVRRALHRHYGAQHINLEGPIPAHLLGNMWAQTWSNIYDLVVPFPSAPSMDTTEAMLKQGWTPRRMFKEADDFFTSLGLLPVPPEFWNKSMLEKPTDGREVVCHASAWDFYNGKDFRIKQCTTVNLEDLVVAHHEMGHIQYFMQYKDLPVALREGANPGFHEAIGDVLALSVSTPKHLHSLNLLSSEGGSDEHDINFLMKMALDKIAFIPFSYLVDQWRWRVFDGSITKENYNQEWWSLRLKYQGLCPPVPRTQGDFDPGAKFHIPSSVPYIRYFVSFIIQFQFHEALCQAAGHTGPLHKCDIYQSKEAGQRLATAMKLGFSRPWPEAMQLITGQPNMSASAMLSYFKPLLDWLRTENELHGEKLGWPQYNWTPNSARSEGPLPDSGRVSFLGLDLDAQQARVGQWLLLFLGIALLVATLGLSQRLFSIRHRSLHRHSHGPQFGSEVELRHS

Ki: 50 µM
SMILES: CC(C)C[C@H](C(=O)O)N1CCO[C@@H](c2ccccc2)[C@H](NC(=O)[C@H](S)Cc2ccccc2)C1=O
